Assay [1] has as its system SKBR3 cells. Description: MTT assay, SKBR3 cells. The class given is cell-based, human. Here is the method: The MTT assay is generally used to assess cellular viability as a function of mitochondrial activity. The assay was used to examine effects of cisplatin with and without the c-erbB-2 monoclonal antibodies and was carried out as follows:
MTT was added for 4 hours and the crystals dissolved with isopropanol/0.04N HCI/0.3% SDS.
For orientation: Tetrazolium dyes change colour on reduction, which living cells bring about.

The test system of assay [2] is SKBR3 cells. Description: Soft agar clonogenic assay, SKBR3. The assay is classed as cell-based, human. The following applies: 10 ng/ml cisplatin alone. Here is the method: The effects of TAb 250 alone and in combination with cisplatin (CDDP) on growth of human tumor cells in soft agar was assessed. SKOV3 (6,000 cells per ml) or SKBR3 (12,000 cells per ml) were incubated in assay medium (DMEM:F12, University of California at San Francisco Cell Culture Facility), 10% dialyzed FBS 0.1 mM nonessential amino acids in solution obtained from Gibco, 1 mM sodium pyruvate and 10 mM HEPES) for 30 minutes at 37° C. with 1 or 10 μg/ml TAb 250. CDDP at concentrations of either 10 ng/ml for SKBR3 cells and 100 ng/ml for SKOV3 cells was then added and the incubation continued for 1.5 hours at 37° C. An equal volume of assay medium containing 0.8% Sea Plaque agarose and appropriate concentrations of TAb 250 and CDDP were combined with the cell mixture. Triplicate 1 ml aliquots were dispensed onto base layers of 0.8% agarose in assay medium containing the appropriate amounts of TAb 250, CDDP or both, in 35 mm dishes. After 14 days at 37° C./5% CO2 in a humidified chamber, viable colonies were stained for 24 hours with Nitro Blue tetrazolium dye (Sigma, 500 μg in 1 ml PBS). Stained colonies greater than 60 μ were scored positive using a FAS III Image Analysis System (Bausch and Lomb, Rochester, N.Y.). The data are expressed as a percentage of untreated control colonies formed. In control dishes, SKOV3 and SKBR3 cells formed 859+/−16 and 1107+/−72 colonies, respectively. […]

As for `N.N.O=C([O-])C1(C(=O)[O-])CCC1.[Pt+2]` [carboplatin, cis-diammine-1,1-cyclobutane dicarboxylate platinum], the cell proliferation in the assay with SKBR3 cells [1] (16 μg of carboplatin alone) is listed as 63 % of control. In the assay with SKBR3 cells [1] (MTT assay, carboplatin 16 μg, melphalan 20 μg), the “synergistic response of the drug combined with TAb 250” value is reported as “synergistic effects”.
On to `N.N.[Cl][Pt][Cl]` [cisplatin, cis-diamminedichloroplatinum], for which the “colony formation in soft agar” value with SKBR3 cells [2] was “did not inhibit colony formation”. Moreover, the cell growth in the assay on SKBR3 cells [1] (1.0 μg of cisplatin alone) is on record as 65 % of control. Moreover, the “toxicity to the cells” value in the assay on SKBR3 cells [1] (3.0 μg of cisplatin alone) is reported as “highly toxic”.
Consider `N[C@@H](Cc1ccc(N(CCCl)CCCl)cc1)C(=O)O` [melphalan, 4-[bis(2-chloroethyl)amino] L-phenylalanine], for which the proliferation in the assay on SKBR3 cells [1] (20 μg of melphalan alone) is listed as 70 % of control.

For the origin of these results see US6884418B1, “Use of ligand-mimicking agents and anti-neoplastic drugs in cancer therapy” (Berlex Laboratories, Inc., priority 1989, dated 2005).
